What was measured:
cocklebur = test: Test B pre/postemergence cocklebur; type: in vivo, Xanthium strumarium
Method in brief: (§1)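 Herbicidal effect was estimated by eye on a ten-point control scale after plants spent twelve to sixteen days in a greenhouse following soil or foliar treatment. Foliar sprays targeted plants at one to four leaves; all doses were formulated in a non-phytotoxic solvent with surfactant.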

pigweed = test: Test B pre/postemergence pigweed; type: in vivo, Amaranthus retroflexus
Method in brief: as §1

purple nutsedge = test: Test B pre/postemergence purple nutsedge; type: in vivo, Cyperus rotundus
Method in brief: as §1

blackgrass = test: Test B pre/postemergence blackgrass; type: in vivo, Alopecurus myosuroides
Method in brief: as §1

morningglory = test: Test B pre/postemergence morningglory; type: in vivo, Ipomoea hederacea
Method in brief: as §1

wheat = test: Test B pre/postemergence wheat; type: in vivo, Triticum aestivum
Method in brief: as §1

bamyardgrass = test: Test B flood test barnyardgrass; type: in vivo, Echinochloa crus-galli; conditions: flood test species
Method in brief: (§2)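 Flood test on plants grown to the 2-leaf stage; treated plants kept in greenhouse twelve to sixteen days, then visually rated against controls on a 0 (no effect) to 10 (complete control) scale.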

surinam grass = test: Test B pre/postemergence surinam grass; type: in vivo, Brachiaria decumbens
Method in brief: as §1

corn = test: Test B pre/postemergence corn; type: in vivo, Zea mays
Method in brief: as §1

crabgrass = test: Test B pre/postemergence crabgrass; type: in vivo, Digitaria sanguinalis
Method in brief: as §1

sugar beet = test: Test B pre/postemergence sugar beet; type: in vivo, Beta vulgaris
Method in brief: as §1

duck salad = test: Test B flood test duck salad; type: in vivo, Heteranthera limosa; conditions: flood test species
Method in brief: as §2

rice = test: Test B flood test rice; type: in vivo, Oryza sativa; conditions: flood test species
Method in brief: as §2

velvetleaf = test: Test B pre/postemergence velvetleaf; type: in vivo, Abutilon theophrasti
Method in brief: as §1

soybean = test: Test B pre/postemergence soybean; type: in vivo, Glycine max
Method in brief: as §1

rape = test: Test B pre/postemergence rape; type: in vivo, Brassica napus
Method in brief: as §1

giant foxtail = test: Test B pre/postemergence giant foxtail; type: in vivo, Setaria faberii
Method in brief: as §1

bedstraw = test: Test B pre/postemergence bedstraw; type: in vivo, Galium aparine; conditions: Postemergence
Method in brief: as §1

smallflower flatsedge = test: Test B flood test smallflower flatsedge; type: in vivo, Cyperus difformis; conditions: flood test species
Method in brief: as §2

wild oat = test: Test B pre/postemergence wild oat; type: in vivo, Avena fatua
Method in brief: as §1

[1] = Postemergence, Rate 125 g/ha, scale 0 to 10, 0 is no effect, 10 is complete control
[2] = Postemergence, Rate 250 g/ha, scale 0 to 10
[3] = Postemergence, Rate 500 g/ha, scale 0 to 10, 0 is no effect, 10 is complete control
[4] = Preemergence, Rate 62 g/ha, scale of 0 to 10 where 0 is no effect and 10 is complete control
[5] = Preemergence, Rate 125 g/ha, scale 0 to 10, 0 is no effect, 10 is complete control
[6] = Preemergence, Rate 250 g/ha, scale 0 to 10, 0 is no effect, 10 is complete control
[7] = Preemergence, Rate 500 g/ha, scale 0 to 10, 0 is no effect, 10 is complete control
[8] = Rate 62 g/ha, Postemergence, scale 0 to 10 (0 no effect, 10 complete control)
[9] = Rate 62 g/ha, Pre-emergence, visual evaluation after twelve to sixteen days
[10] = Rate 125 g/ha, under heading Pre-emergence, visual evaluation after twelve to sixteen days
[11] = Rate 500 g/ha, Pre-emergence, scale 0 to 10 (0 no effect, 10 complete control)

CC(C)C(=O)Cn1c(=O)on(C(=O)N(c2ccccc2)C(C)C)c1=O [Compound 485]
Cocklebur plant response rating (cocklebur; [1]): 0
Cocklebur plant response rating (cocklebur; [2]): 0
Plant response rating, Cocklebur (cocklebur; [3]): 0
Plant response rating, Cocklebur (cocklebur; [4]): 0
Cocklebur plant response rating (cocklebur; [5]): 0
Cocklebur plant response rating (cocklebur; [6]): 0
Cocklebur plant response rating (cocklebur; [7]): 0
Cocklebur plant response rating (cocklebur; [8]): 0
Redroot pigweed plant response rating (pigweed; [1]): 0
Plant response rating, Redroot pigweed (pigweed; [3]): 2
Plant response rating, Redroot pigweed (pigweed; [4]): 1
Redroot pigweed plant response rating (pigweed; [5]): 6
Redroot pigweed plant response rating (pigweed; [7]): 9
Redroot pigweed plant response rating (pigweed; [8]): 0
Nutsedge plant response rating (purple nutsedge; [1]): 0
Plant response rating, Nutsedge (purple nutsedge; [3]): 0
Plant response rating, Nutsedge (purple nutsedge; [4]): 0
Nutsedge plant response rating (purple nutsedge; [5]): 0
Nutsedge plant response rating (purple nutsedge; [6]): 0
Nutsedge plant response rating (purple nutsedge; [7]): 0
Nutsedge plant response rating (purple nutsedge; [8]): 0
Blackgrass plant response rating (blackgrass; [1]): 7
Blackgrass plant response rating (blackgrass; [2]): 7
Plant response rating, Blackgrass (blackgrass; [3]): 8
Plant response rating, Blackgrass (blackgrass; [4]): 4
Blackgrass plant response rating (blackgrass; [5]): 8
Blackgrass plant response rating (blackgrass; [6]): 8
Blackgrass plant response rating (blackgrass; [7]): 9
Blackgrass plant response rating (blackgrass; [8]): 3
Morningglory plant response rating (morningglory; [1]): 10
Plant response rating, Morningglory (morningglory; [3]): 10
Plant response rating, Morningglory (morningglory; [4]): 0
Morningglory plant response rating (morningglory; [5]): 0
Morningglory plant response rating (morningglory; [6]): 0
Morningglory plant response rating (morningglory; [7]): 4
Morningglory plant response rating (morningglory; [8]): 8
Wheat plant response rating (wheat; [1]): 0
Plant response rating, Wheat (wheat; [3]): 5
Plant response rating, Wheat (wheat; [4]): 0
Wheat plant response rating (wheat; [5]): 2
Wheat plant response rating (wheat; [6]): 3
Wheat plant response rating (wheat; [7]): 5
Wheat plant response rating (wheat; [8]): 0
Plant response rating, Barnyardgrass (0 to 10 scale, 0 is no effect, 10 is complete control) (bamyardgrass; [9]): 0
Barnyardgrass plant response rating (0 to 10 scale, 0 is no effect, 10 is complete control) (bamyardgrass; [10]): 0
Barnyardgrass plant response rating (bamyardgrass; [11]): 0
B. signalgrass plant response rating (surinam grass; [1]): 0
B. signalgrass plant response rating (surinam grass; Postemergence, Rate 250 g/ha, scale 0 to 10, 0 no effect, 10 complete control): 4
Plant response rating, B. signalgrass (surinam grass; [3]): 5
Plant response rating, B. signalgrass (surinam grass; [4]): 3
B. signalgrass plant response rating (surinam grass; [5]): 5
B. signalgrass plant response rating (surinam grass; [6]): 8
B. signalgrass plant response rating (surinam grass; [7]): 8
B. signalgrass plant response rating (surinam grass; [8]): 0
Corn plant response rating (corn; [1]): 0
Corn plant response rating (corn; [2]): 0
Plant response rating, Corn (corn; [3]): 0
Plant response rating, Corn (corn; [4]): 0
Corn plant response rating (corn; [5]): 0
Corn plant response rating (corn; [6]): 0
Corn plant response rating (corn; [7]): 7
Corn plant response rating (corn; [8]): 0
Crabgrass plant response rating (crabgrass; [1]): 6
Crabgrass plant response rating (crabgrass; [2]): 7
Plant response rating, Crabgrass (crabgrass; [3]): 8
Plant response rating, Crabgrass (crabgrass; [4]): 6
Crabgrass plant response rating (crabgrass; [5]): 7
Crabgrass plant response rating (crabgrass; [6]): 10
Crabgrass plant response rating (crabgrass; [7]): 10
Crabgrass plant response rating (crabgrass; [8]): 3
Sugarbeets plant response rating (sugar beet; [1]): 0
Plant response rating, Sugarbeets (sugar beet; [3]): 0
Plant response rating, Sugarbeets (sugar beet; [4]): 0
Sugarbeets plant response rating (sugar beet; [5]): 0
Sugarbeets plant response rating (sugar beet; [6]): 0
Sugarbeets plant response rating (sugar beet; [7]): 2
Sugarbeets plant response rating (sugar beet; [8]): 0
Plant response rating, Ducksalad (0 to 10 scale, 0 is no effect, 10 is complete control) (duck salad; [9]): 0
Ducksalad plant response rating (0 to 10 scale, 0 is no effect, 10 is complete control) (duck salad; [10]): 0
Ducksalad plant response rating (duck salad; [11]): 0
Plant response rating, Rice (0 to 10 scale, 0 is no effect, 10 is complete control) (rice; [9]): 0
Rice plant response rating (0 to 10 scale, 0 is no effect, 10 is complete control) (rice; [10]): 0
Rice plant response rating (rice; [11]): 0
Velvetleaf plant response rating (velvetleaf; [1]): 0
Plant response rating, Velvetleaf (velvetleaf; [3]): 4
Plant response rating, Velvetleaf (velvetleaf; [4]): 0
Velvetleaf plant response rating (velvetleaf; [5]): 0
Velvetleaf plant response rating (velvetleaf; [6]): 0
Velvetleaf plant response rating (velvetleaf; [7]): 3
Velvetleaf plant response rating (velvetleaf; [8]): 0
Soybean plant response rating (soybean; [1]): 4
Plant response rating, Soybean (soybean; [3]): 5
Plant response rating, Soybean (soybean; [4]): 0
Soybean plant response rating (soybean; [5]): 0
Soybean plant response rating (soybean; [6]): 0
Soybean plant response rating (soybean; [7]): 0
Soybean plant response rating (soybean; [8]): 2
Rape plant response rating (rape; [1]): 0
Plant response rating, Rape (rape; [3]): 0
Plant response rating, Rape (rape; [4]): 0
Rape plant response rating (rape; [5]): 0
Rape plant response rating (rape; [6]): 0
Rape plant response rating (rape; [7]): 2
Rape plant response rating (rape; [8]): 0
Giant foxtail plant response rating (giant foxtail; [1]): 7
Plant response rating, Giant foxtail (giant foxtail; [3]): 8
Plant response rating, Giant foxtail (giant foxtail; [4]): 7
Giant foxtail plant response rating (giant foxtail; [5]): 8
Giant foxtail plant response rating (giant foxtail; [6]): 10
Giant foxtail plant response rating (giant foxtail; [7]): 10
Giant foxtail plant response rating (giant foxtail; [8]): 5
Bedstraw plant response rating (bedstraw; Rate 125 g/ha, scale 0 to 10, 0 is no effect, 10 is complete control): 0
Bedstraw plant response rating (bedstraw; Rate 250 g/ha, scale 0 to 10): 2
Plant response rating, Bedstraw (bedstraw; Rate 500 g/ha, scale 0 to 10, 0 is no effect, 10 is complete control): 6
Bedstraw plant response rating (bedstraw; Rate 62 g/ha, scale 0 to 10 (0 no effect, 10 complete control)): 0
Plant response rating, S. Flatsedge (0 to 10 scale, 0 is no effect, 10 is complete control) (smallflower flatsedge; [9]): 0
S. Flatsedge plant response rating (0 to 10 scale, 0 is no effect, 10 is complete control) (smallflower flatsedge; [10]): 0
S. Flatsedge plant response rating (smallflower flatsedge; [11]): 0
Wild oats plant response rating (wild oat; [1]): 0
Plant response rating, Wild oats (wild oat; [3]): 4
Plant response rating, Wild oats (wild oat; [4]): 2
Wild oats plant response rating (wild oat; [5]): 5
Wild oats plant response rating (wild oat; [6]): 6
Wild oats plant response rating (wild oat; [7]): 8
Wild oats plant response rating (wild oat; [8]): 0

Reference: patent publication US6737383B1, “Herbicidal oxadiazolidines” (priority 1999, dated 2004)
